In patent publication US20170253601A1, “Substituted Pyrrolidine Compounds” (EPIZYME, INC., priority 2014, published 2017) one finds IC50 data, which are given here for 13 molecules.

Structures are written as SMILES.

The target in this test is T1, SMYD2 (Homo sapiens, UniProt Q9NRG4).
T1 construct: Full length SMYD2 (NP 064582.2) was cloned; His6 (N, cleaved yes); FLAG (N); made in house; host or cells: Sf9 insect cells
T1 sequence (Q9NRG4 whole entry): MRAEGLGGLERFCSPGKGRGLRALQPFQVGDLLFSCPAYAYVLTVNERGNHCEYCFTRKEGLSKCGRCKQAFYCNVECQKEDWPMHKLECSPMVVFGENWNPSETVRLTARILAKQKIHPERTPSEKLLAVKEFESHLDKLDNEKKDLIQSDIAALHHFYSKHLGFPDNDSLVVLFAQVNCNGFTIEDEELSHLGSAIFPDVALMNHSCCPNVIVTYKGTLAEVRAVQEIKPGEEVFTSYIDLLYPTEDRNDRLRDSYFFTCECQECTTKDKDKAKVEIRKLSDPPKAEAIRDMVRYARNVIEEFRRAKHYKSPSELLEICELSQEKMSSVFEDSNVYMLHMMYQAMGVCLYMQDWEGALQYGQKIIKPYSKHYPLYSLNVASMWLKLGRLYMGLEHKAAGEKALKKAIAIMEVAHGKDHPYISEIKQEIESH
The test is described as follows: SMYD2 Biochemical Assay (3H-SAM, biotinylated peptide substrate, Flashplate). As to conditions: IC50 values are an average of n = 1 to n = 50; read-out: SMYD2 Biochem IC50 (μM)*. The method, boiled down: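 Methyltransferase activity tracked as 3H transfer from 10 nM 3H-SAM to 60 nM biotinylated peptide, counted after streptavidin Flashplate capture and normalised to DMSO and 1000 uM SAH controls. Enzyme: 1.5 nM full-length Sf9-expressed SMYD2, 30 min compound pre-incubation at room temperature, in Bicine pH 7.6 buffer with 2% DMSO; reactions quenched with 600 uM unlabelled SAM; IC50 from 3- or 4-parameter fit.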
Broadly, the IC50 is the point on the concentration scale where inhibition reaches its midpoint. Turning to `CC(C)N1C[C@H](NC(=O)c2cc(C3CC3)on2)[C@H](C(C)(C)C)C1` (racemic) [compound 258, (±)-cis-N-[4-tert-butyl-1-(propan-2-yl)pyrrolidin-3-yl]-5-cyclopropyl-1,2-oxazole-3-carboxamide], the 50% inhibitory concentration (IC50) is more than 50 µM.
The figure for `C[C@H]1CN(Cc2cc3ccccc3s2)C[C@H]1NC(=O)c1cc(C2CC2)on1` (racemic) [compound 195, (±)-cis-N-[1-(1-benzothiophen-2-ylmethyl)-4-methyl-pyrrolidin-3-yl]-5-cyclopropyl-1,2-oxazole-3-carboxamide] is 33.4 µM; for `C[C@H]1CN(c2ncccn2)C[C@H]1NC(=O)c1cc(C2CC2)on1` (racemic) [compound 339, (±)-cis-5-cyclopropyl-N-[4-methyl-1-(pyrimidin-2-yl)pyrrolidin-3-yl]-1,2-oxazole-3-carboxamide] it is more than 50 µM.
The figure for `C[C@H]1CN(Cc2ccnc3ccccc23)C[C@H]1NC(=O)c1cc(C2CC2)on1` (racemic) [compound 197, (±)-cis-5-cyclopropyl-N-[4-methyl-1-(quinolin-4-ylmethyl)pyrrolidin-3-yl]-1,2-oxazole-3-carboxamide] is more than 50 µM; for `C[C@H]1CN(c2ccccc2Cl)C[C@H]1NC(=O)c1cc(C2CC2)on1` (racemic) [compound 301, (±)-cis-N-[1-(2-chloro-phenyl)-4-methyl-pyrrolidin-3-yl]-5-cyclo-propyl-1,2-oxazole-3-carboxamide] it is more than 50 µM.
The figure for `C[C@H]1CN(Cc2cnc3ncccn23)C[C@H]1NC(=O)c1cc(C2CC2)on1` (racemic) [compound 211, (±)-cis-5-cyclopropyl-N-[1-{imidazo[1,2-a]pyrimidin-3-ylmethyl}-4-methylpyrrolidin-3-yl]-1,2-oxazole-3-carboxamide] is more than 50 µM; for `C[C@H]1CN(c2ccccc2)C[C@H]1NC(=O)c1cc(C2CC2)on1` (racemic) [compound 272, (±)-cis-5-cyclopropyl-N-[4-methyl-1-phenylpyrrolidin-3-yl]-1,2-oxazole-3-carboxamide] it is more than 50 µM; for `C[C@H]1CN(Cc2c(Cl)cccc2Cl)C[C@H]1NC(=O)c1cc(C2CC2)on1` (racemic) [compound 322, (±)-cis-5-cyclopropyl-N-{1-[(2,6-dichloro-phenyl)methyl]-4-methylpyrrolidin-3-yl}-1,2-oxazole-3-carboxamide] it is more than 50 µM.
Turning to `CC(C)N1C[C@@H](NC(=O)c2cc(C3CC3)on2)C[C@H]1COCC#CC1CCCCC1` (racemic) [compound 239, (±)-cis-N-[5-{[(3-cyclo-hexylprop-2-yn-1-yl)oxy]methyl}-1-(propan-2-yl)pyrrolidin-3-yl]-5-cyclopropyl-1,2-oxazole-3-carboxamide], the 50% inhibitory concentration (IC50) is more than 50 µM.
The figure for `C[C@H]1CN(c2ccncn2)C[C@H]1NC(=O)c1cc(C2CC2)on1` (racemic) [compound 340, (±)-cis-5-cyclopropyl-N-[4-methyl-1-(pyrimidin-4-yl)pyrrolidin-3-yl]-1,2-oxazole-3-carboxamide] is more than 50 µM; for `C[C@@H]1CN(Cc2cc3ccccc3s2)C[C@H]1NC(=O)c1cc(C2CC2)on1` (racemic) [compound 152, (±)-trans-N-[1-(1-benzothiophen-2-ylmethyl)-4-methyl-pyrrolidin-3-yl]-5-cyclopropyl-1,2-oxazole-3-carboxamide] it is more than 50 µM.
Consider `CC(C)N1C[C@H](NC(=O)c2cc(C3CC3)on2)[C@@H](C(C)(C)C)C1` (racemic) [compound 146, (±)-trans-N-[4-tert-butyl-1-(propan-2-yl)pyrrolidin-3-yl]-5-cyclopropyl-1,2-oxazole-3-carboxamide], for which the 50% inhibitory concentration (IC50) was more than 50 µM.
The figure for `C[C@H]1CN(Cc2ccc(-c3cc(Cl)ccc3Cl)o2)C[C@H]1NC(=O)c1cc(C2CC2)on1` (racemic) [compound 198, (±)-cis-5-cyclopropyl-N-(1-{[5-(2,5-dichloro-phenyl)furan-2-yl]methyl}-4-methyl-pyrrolidin-3-yl)-1,2-oxazole-3-carboxamide] is more than 50 µM.
